From patent publication US10870638B2, “Pyridazinone compound or its salt, and herbicide containing it” (ISHIHARA SANGYO KAISHA, LTD., priority 2016, dated 2020)

Columns and labels:
Format in all cases: in vivo
Settings in all cases: active ingredient amount 31 g/ha, 14th day after application
[1] = system: barnyardgrass (Echinochloa crus-qalli L.); assay: Test Example 2: soil application on the day after sowing, growth inhibition rate on 14th day
Summary of the method: (§1)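 Upland soil pots; sowing, then next-day soil spraying of compound formulations (1,000 L/ha water) at defined a.i. doses. Day-14 visual rating of inhibition on a 0–100 scale, where 100 means complete kill.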

[2] = system: crabgrass (Digitaris sanquinalis L.); assay: as above
Summary of the method: as §1

[3] = system: soybean (Glycine max Merr.); assay: as above
Summary of the method: as §1

[4] = system: velvetleaf (Abutilon theophrasti MEDIC.); assay: as above
Summary of the method: as §1

[5] = system: rice (Oryza sativa L.); assay: as above
Summary of the method: as §1

[6] = system: green foxtail (Setaria viridis L.); assay: as above
Summary of the method: as §1

[7] = system: wheat (Triticum aestivum L.); assay: as above
Summary of the method: as §1

[8] = system: redroot pigweed (Amaranthus retroflexus L.); assay: as above
Summary of the method: as §1

[9] = system: corn (Zea mays L.); assay: as above
Summary of the method: as §1

[10] = system: prickly sida (Sida spinosa L.); assay: as above
Summary of the method: as §1

[11] = system: barnyardgrass (Echinochloa crus-qalli L.); assay: Test Example 1: foliar treatment, growth inhibition rate on 14th day
Summary of the method: (§2)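 Using a small sprayer, formulated compound in water (0.1 vol % surfactant, 1,000 L/ha) was applied to seedlings grown from seed in upland soil. Fourteen days on, growth state was observed and expressed as percent inhibition from 0 to 100.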

[12] = system: soybean (Glycine max Merr.); assay: as above
Summary of the method: (§3)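 Visual 0–100% inhibition scoring (100 = complete kill) at 14 days after foliar treatment of soil-grown seedlings at species-specific leaf stages, with the compound sprayed as a wettable powder or emulsifiable concentrate dilution.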

[13] = system: crabgrass (Digitaria sanquinalis L.); assay: as above
Summary of the method: as §2

[14] = system: rice (Oryza sativa L.); assay: as above
Summary of the method: as §3

[15] = system: wild oat (Avena fatua L.); assay: as above
Summary of the method: as §3

[16] = system: green foxtail (Setaria viridis L.); assay: as above
Summary of the method: as §3

[17] = system: wheat (Triticum aestivum L.); assay: as above
Summary of the method: as §2

[18] = system: redroot pigweed (Amaranthus retroflexus L.); assay: as above
Summary of the method: as §2

[19] = system: corn (Zea mays L.); assay: as above
Summary of the method: as §2

[20] = system: italian ryegrass (Lolium multiflorum Lam.); assay: as above
Summary of the method: as §2

[21] = visual, 0 = non-treated, 100 = complete kill

Compound | Growth inhibition rate (%) Barnyardgrass [1] [%] | Growth inhibition rate (%) Crabgrass [2] [%] | Growth inhibition rate (%) Soybean [3] [%] | Growth inhibition rate (%) Velvetleaf [4] [%] | Growth inhibition rate (%) Rice [5] [%] | Growth inhibition rate (%) Green foxtail [6] [%] | Growth inhibition rate (%) Wheat [7] [%] | Growth inhibition rate (%) Redroot pigweed [8] [%] | Growth inhibition rate (%) Corn [9] [%] | Growth inhibition rate (%) Prickly sida [10] [%] | Growth inhibition rate (%) Barnyardgrass [11] [%] | Growth inhibition rate (%) Soybean [12] [%] | Growth inhibition rate (%) Crabgrass [13] [%] | Growth inhibition rate (%) Rice [14] [%] | Growth inhibition rate (%) Wild oat [15] [%] | Growth inhibition rate (%) Green foxtail [16] [%] | Growth inhibition rate (%) Wheat [17] [%] | Growth inhibition rate (%) Redroot pigweed [18] [%] | Growth inhibition rate (%) Corn [19] [%] | Growth inhibition rate (%) Italian ryegrass [20] [%] | further results
Cc1ccc(Oc2nc3ccc(Br)cc3o2)cc1-c1c(O)cnn(C)c1=O [Compound 2-181] | 90 | 0 | 0 | 0 | 20 | 40 | 0 | 0 | 0 | 0 | 100 | 0 | 99 | 10 | 83 | 100 | 35 | 0 | 70 | 93 | 
Cc1ccc(Oc2nc3ccc(Cl)cc3o2)cc1-c1c(O)c(C)nn(C)c1=O [Compound 2-8] | 100 | 95 | 0 | 0 | 20 | 100 | 0 | 0 | 0 | 0 | 100 | 0 | 100 | 15 | 65 | 99 | 25 | 0 | 10 | 83 | 
COCCOC(=O)Oc1c(C)nn(C)c(=O)c1-c1cc(Oc2cnc3cc(Cl)ccc3n2)ccc1C [Compound 3-55] | 80 | 30 | 0 | 0 | 0 | 60 | 0 | 0 | 0 | 0 |  |  |  |  |  |  |  |  |  |  | Growth inhibition rate (%) Barnyardgrass [11, 21]: 98%; Growth inhibition rate (%) Soybean [12, 21]: 30%; Growth inhibition rate (%) Crabgrass [13, 21]: 99%; Growth inhibition rate (%) Rice [14, 21]: 90%; Growth inhibition rate (%) Wild oat [15, 21]: 99%; Growth inhibition rate (%) Green foxtail [16, 21]: 100%; Growth inhibition rate (%) Wheat [17, 21]: 98%; Growth inhibition rate (%) Redroot pigweed [18, 21]: 0%; Growth inhibition rate (%) Corn [19, 21]: 50%; Growth inhibition rate (%) Italian ryegrass [20, 21]: 99%
CCc1ccc(Oc2nc3ccccc3o2)cc1-c1c(O)c(C)nn(C)c1=O [Compound 2-165] | 99 | 98 | 0 | 0 | 70 | 99 | 0 | 0 | 0 | 0 | 100 | 25 | 70 | 25 | 0 | 88 | 0 | 0 | 35 | 0 | 
